Results published in PubChem BioAssay AID248 (DTP/NCI, 2004).
Toxic doses and inconclusive results are not listed. Cut-off read from the data, not from the text of the source: active = T/C of 150% or more; inactive = T/C below 125%.

Test system: L1210 leukemia ip in BDF1 mice, survival T/C
Test: NCI In Vivo Anticancer Drug Screen. Data for tumor model L1210 Leukemia (intraperitoneal) in B6D2F1 (BDF1) mice
Settings: higher = longer survival
Summary of the method: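 Transplanted-tumor mice were given test agent; controls received vehicle only. Survival readings from the two groups were divided (treated over control).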

Measured: T/C

N=c1nc2n(cc1F)C1OC(CO)C(O)C1O2 (stereo not drawn)
active: endpoint: median survival time, dose: 200.0 mg/kg/injection, schedule: Q01DX005 (ip), vehicle: other 163 % of control | endpoint: median survival time, dose: 400.0 mg/kg/injection, schedule: Q01DX005 (ip), vehicle: other 163 % of control

Cc1ccc(S(=O)(=O)Nc2ccc3ncccc3c2[N+](=O)[O-])cc1
inactive: endpoint: mean survival time, dose: 100.0 mg/kg/injection, schedule: Q01DX001 (ip), vehicle: saline 94 % of control | endpoint: mean survival time, dose: 200.0 mg/kg/injection, schedule: Q01DX001 (ip), vehicle: saline 93 % of control | endpoint: mean survival time, dose: 400.0 mg/kg/injection, schedule: Q01DX001 (ip), vehicle: saline 98 % of control

O=C(Nc1cccc(NC(=O)Nc2cccc(C3=NCCN3)c2)c1)Nc1cccc(C2=NCCN2)c1
active: endpoint: mean survival time, dose: 27.0 mg/kg/injection, schedule: Q01DX Z (ip), vehicle: carboxymethylcellulose (CMC) 156 % of control
inactive: endpoint: mean survival time, dose: 16.4 mg/kg/injection, schedule: Q01DX Z (ip), vehicle: carboxymethylcellulose (CMC) 121 % of control | endpoint: mean survival time, dose: 37.0 mg/kg/injection, schedule: Q01DX Z (ip), vehicle: carboxymethylcellulose (CMC) 121 % of control | endpoint: mean survival time, dose: 55.5 mg/kg/injection, schedule: Q01DX Z (ip), vehicle: carboxymethylcellulose (CMC) 123 % of control | endpoint: mean survival time, dose: 66.0 mg/kg/injection, schedule: Q01DX Z (ip), vehicle: carboxymethylcellulose (CMC) 107 % of control | endpoint: mean survival time, dose: 83.3 mg/kg/injection, schedule: Q01DX Z (ip), vehicle: carboxymethylcellulose (CMC) 121 % of control | endpoint: mean survival time, dose: 90.0 mg/kg/injection, schedule: Q01DX Z (ip), vehicle: saline 107 % of control | endpoint: mean survival time, dose: 125.0 mg/kg/injection, schedule: Q01DX Z (ip), vehicle: carboxymethylcellulose (CMC) 101 % of control | endpoint: mean survival time, dose: 187.5 mg/kg/injection, schedule: Q01DX Z (ip), vehicle: carboxymethylcellulose (CMC) 104 % of control

CCN(CC)CCCC(C)Nc1cc(C)nc(Nc2nc3cc(Cl)c(Cl)cc3[nH]2)n1 (stereo not drawn)
inactive: endpoint: mean survival time, dose: 5.0 mg/kg/injection, schedule: Q01DX009 (ip), vehicle: saline with Tween-80 96 % of control | endpoint: mean survival time, dose: 10.0 mg/kg/injection, schedule: Q01DX009 (ip), vehicle: saline with Tween-80 93 % of control

CC(=O)C1=C(O)C2C3c4c[nH]c5cccc(c45)CC3C(C)(C)N2C1=O (stereo not drawn)
inactive: endpoint: mean survival time, dose: 0.25 mg/kg/injection, schedule: Q01DX001 (ip), vehicle: saline 101 % of control | endpoint: mean survival time, dose: 0.5 mg/kg/injection, schedule: Q01DX001 (ip), vehicle: saline 103 % of control | endpoint: mean survival time, dose: 1.0 mg/kg/injection, schedule: Q01DX001 (ip), vehicle: saline 101 % of control | endpoint: mean survival time, dose: 2.0 mg/kg/injection, schedule: Q01DX001 (ip), vehicle: saline 105 % of control

C[n+]1ccc(/C=C/c2ccc(Cl)c(Cl)c2)c2ccccc21
inactive: endpoint: mean survival time, dose: 12.5 mg/kg/injection, schedule: Q04DX003 (ip), vehicle: Klucel (hydroxypropylcellulose) (HPC) 98 % of control | endpoint: mean survival time, dose: 25.0 mg/kg/injection, schedule: Q04DX003 (ip), vehicle: Klucel (hydroxypropylcellulose) (HPC) 100 % of control | endpoint: mean survival time, dose: 50.0 mg/kg/injection, schedule: Q04DX003 (ip), vehicle: Klucel (hydroxypropylcellulose) (HPC) 96 % of control

COc1cc(OC)c(N=Cc2ccc3c(c2)OCO3)cc1Cl
inactive: endpoint: mean survival time, dose: 100.0 mg/kg/injection, schedule: Q01DX009 (ip), vehicle: Klucel (hydroxypropylcellulose) (HPC) 91 % of control | endpoint: mean survival time, dose: 200.0 mg/kg/injection, schedule: Q01DX009 (ip), vehicle: Klucel (hydroxypropylcellulose) (HPC) 98 % of control | endpoint: mean survival time, dose: 400.0 mg/kg/injection, schedule: Q01DX009 (ip), vehicle: Klucel (hydroxypropylcellulose) (HPC) 96 % of control

CN(/N=N/c1nc[nH]c1C(=O)N/N=C/c1ccc(N(CCCl)CCCl)cc1)C1CCCCC1
inactive: endpoint: mean survival time, dose: 100.0 mg/kg/injection, schedule: Q01DX001 (ip), vehicle: other 95 % of control | endpoint: mean survival time, dose: 200.0 mg/kg/injection, schedule: Q01DX001 (ip), vehicle: other 95 % of control | endpoint: mean survival time, dose: 400.0 mg/kg/injection, schedule: Q01DX001 (ip), vehicle: other 90 % of control

Cc1ccc(S(=O)(=O)NC(c2ccccc2)(c2ccccc2)c2ccc([N+](=O)[O-])cc2)cc1
inactive: endpoint: mean survival time, dose: 100.0 mg/kg/injection, schedule: Q01DX009 (ip), vehicle: saline 100 % of control | endpoint: mean survival time, dose: 200.0 mg/kg/injection, schedule: Q01DX009 (ip), vehicle: saline 103 % of control | endpoint: mean survival time, dose: 400.0 mg/kg/injection, schedule: Q01DX009 (ip), vehicle: saline 101 % of control

CCOC(=S)NS(=O)(=O)c1ccccc1
inactive: endpoint: mean survival time, dose: 100.0 mg/kg/injection, schedule: Q01DX001 (ip), vehicle: acetone 98 % of control | endpoint: mean survival time, dose: 200.0 mg/kg/injection, schedule: Q01DX001 (ip), vehicle: acetone 110 % of control | endpoint: mean survival time, dose: 400.0 mg/kg/injection, schedule: Q01DX001 (ip), vehicle: acetone 98 % of control

CC(=O)OC(CC(=O)CC(O)(C(F)(F)F)C(F)(F)F)(C(F)(F)F)C(F)(F)F
inactive: endpoint: mean survival time, dose: 6.25 mg/kg/injection, schedule: Q01DX009 (ip), vehicle: saline 94 % of control | endpoint: mean survival time, dose: 12.5 mg/kg/injection, schedule: Q01DX009 (ip), vehicle: saline 91 % of control | endpoint: mean survival time, dose: 25.0 mg/kg/injection, schedule: Q01DX009 (ip), vehicle: saline 88 % of control
